The text below walks through data of paper PMC12040169 (PLOS Biology, 2025).

This data set is described as follows: in vitro. Conditions: human, hela cells, % viability.

Consider `O=C1NCCNC(=O)C2(C/C=C/COc3ccccc31)CCN(C(=O)CCN1CCCCC1)CC2` [CBK292026], for which the viability – broadly, a read-out of living cells in per cent, often relative to untreated cells – at 28.5 h, 10 µM came out at 110%. With `O=C1COc2ccccc2C/C=C/CC2(CCCNC2)CN1` (centres unmarked) [CBK292029] the figure was 91.5%. Turning to `CC(=O)N1CC[C@H]2NC(=O)CNC(=O)C3(CCCC[C@H]2C1)CCN(C(=O)CC1CCOCC1)CC3` [CBK292030], the viability at 28.5 h, 10 µM was determined as 92.9%. With `O=C1COc2ccccc2C/C=C/C[C@H]2CNCC[C@H]2N1` [CBK292033] the figure was 101%; with `CN1C(=O)c2ccccc2OCCCCC[C@H]2[C@@H]1CCCN2C(=O)c1cc2c([nH]c1=O)CCC2` [CBK292034], 114%. With `O=C1COc2ccccc2C/C=C/CC2(CCCN(C(=O)CN3CSCC3=O)C2)CN1` (centres unmarked) [CBK292035], the viability at 28.5 h, 10 µM was 116%. With `Cc1noc(C)c1CCC(=O)N1CC[C@H]2NC(=O)c3ccccc3OCCCCC[C@H]2C1` [CBK292036], the viability at 28.5 h, 10 µM was 96.5%. With `O=C1N[C@@H]2CCN(C(=O)COc3cccnc3)C[C@@H]2CCCCCOc2ccccc21` [CBK292037] the figure was 94.6%; with `O=C1N[C@@H]2CCN(C(=O)CCn3ccccc3=O)C[C@@H]2CCCCCOc2ccccc21` [CBK292039], 94.2%. As for `NC(=O)CN1CCC[C@@H]2NC(=O)COc3ccccc3C(=O)N[C@@H]3CCOC[C@@H]3C/C=C/C[C@@H]21` [CBK292041], the viability at 28.5 h, 10 µM stood at 103%.

Consider `CC(=O)N1CCC[C@H]2NC(=O)CNC(=O)C3(C/C=C/C[C@H]21)CCN(c1ncccn1)CC3` [CBK292042], for which the viability at 28.5 h, 10 µM was found to be 110%.

Regarding `Cc1ccn(CC(=O)N2CC[C@H]3NC(=O)COc4ccccc4CCCC[C@@H]3C2)c(=O)c1` [CBK292045], the viability at 28.5 h, 10 µM stood at 99.2%.

`O=C(CN1CC[C@H]2NC(=O)COc3ccccc3CCCC[C@@H]2C1)NCc1ccccn1` [CBK292046]: the viability at 28.5 h, 10 µM was 96.7%.

For the compound `O=C1COc2ccccc2CCCC[C@@H]2CN(C(=O)CN3C(=O)CNC3=O)CC[C@H]2N1` [CBK292047], the viability at 28.5 h, 10 µM amounted to 92.7%. In the case of `O=C1COc2ccccc2CCCC[C@@H]2CN(C(=O)Cn3ccc(=O)[nH]c3=O)CC[C@H]2N1` [CBK292048], the viability at 28.5 h, 10 µM amounted to 102%.

`O=C1COc2ccccc2C/C=C/CC2(CCCN(C(=O)Cn3ccnc3)C2)CN1` (centres unmarked) [CBK292050]: the viability at 28.5 h, 10 µM amounted to 107%. For `O=C1NCCCNC(=O)C2(C/C=C/CCOc3ccccc31)CCN(C(=O)CN1CCCC1)CC2` [CBK292052], the viability at 28.5 h, 10 µM is 101%. As for `CN1CCOc2ccccc2C(=O)NC/C=C/CC2(CCN(C(=O)c3ccc(F)cc3)CC2)C1=O` [CBK292055], the figure is 92%.

On to `Cc1ccc(CN2CC[C@H]3NC(=O)c4ccccc4OCC/C=C/C[C@H]3C2)cn1` [CBK292056], for which the viability at 28.5 h, 10 µM amounted to 98.6%. As to `CC(=O)N1CCC[C@H]2NC(=O)CNC(=O)C3(C/C=C/C[C@H]21)CCN(C(=O)c1ccon1)CC3` [CBK292057], the viability at 28.5 h, 10 µM was determined as 109%.

For the compound `Cc1nonc1CC(=O)N1CCC[C@@H]2[C@H]1C/C=C/Cc1ccccc1OCC(=O)N2C` [CBK292062], the viability at 28.5 h, 10 µM amounted to 88.3%. For `CN1C(=O)COc2ccccc2C/C=C/C[C@@H]2[C@H]1CCCN2S(=O)(=O)N1CCOCC1` [CBK292063], the viability at 28.5 h, 10 µM is 90.6%.

On to `CC(C)C(=O)N1CCC[C@@H]2NC(=O)c3ccccc3OCC/C=C/C[C@@H]21` [CBK292064], for which the viability at 28.5 h, 10 µM came out at 101%. As for `O=C1CNC(=O)C2(C/C=C/C[C@H]3COCC[C@@H]3N1)CCN(C(=O)c1cccc(Cl)c1)CC2` [CBK292066], the figure is 111%. Regarding `CN1C(=O)COc2ccccc2C/C=C/C[C@@H]2[C@H]1CCCN2S(=O)(=O)c1cccnc1` [CBK292067], the viability at 28.5 h, 10 µM turned out to be 102%.

Consider `Cc1nccc(C(=O)N2CCC3(C/C=C/C[C@H]4COCC[C@H]4NC(=O)CNC3=O)CC2)n1` [CBK292072], for which the viability at 28.5 h, 10 µM stood at 103%. With `O=C1CNC(=O)C2(C/C=C/C[C@H]3COCC[C@H]3N1)CCN(Cc1cccc3[nH]ccc13)CC2` [CBK292073] the figure was 110%. With `O=C1NCCNC(=O)C2(CCCCOc3ccccc31)CCNCC2` [CBK292074] the figure was 108%. As to `CN1C(=O)c2ccccc2OCCCCC[C@H]2NCCC[C@H]21` [CBK292075], the viability at 28.5 h, 10 µM stood at 110%. Turning to `CN1C(=O)COc2ccccc2C/C=C/C[C@H]2CNCC[C@H]21` [CBK292076], the viability at 28.5 h, 10 µM was 107%. As for `Cc1ccc(C(=O)N2CCC[C@@H]3NC(=O)c4ccccc4OCC/C=C/C[C@@H]32)c(O)n1` [CBK292080], the figure is 98.2%; as for `Cc1ccn(CCC(=O)N2CCC[C@@H]3NC(=O)c4ccccc4OCC/C=C/C[C@@H]32)n1` [CBK292082], 109%; as for `CN1C(=O)COc2ccccc2C/C=C/C[C@@H]2[C@H]1CCCN2C(=O)c1cnn2cccnc12` [CBK292083], 109%.

Turning to `O=C1NC/C=C/CC2(CCN(Cc3c[nH]c4ccccc34)CC2)C(=O)NCCOc2ccccc21` [CBK292085], the viability at 28.5 h, 10 µM is 100%.

Consider `CN1C(=O)COc2ccccc2C/C=C/C[C@H]2CN(C(=O)C3CCC3)CC[C@H]21` [CBK292087], for which the viability at 28.5 h, 10 µM stood at 95.1%. Take `CC(=O)N1CCC[C@H]2NC(=O)CNC(=O)C3(C/C=C/C[C@H]21)CCN(CC(C)C)CC3` [CBK292088]: the viability at 28.5 h, 10 µM was determined as 106%. Turning to `CN1C(=O)COc2ccccc2CCCC[C@@H]2[C@H]1CCCN2C(=O)CCCn1cccn1` [CBK292090], the viability at 28.5 h, 10 µM was determined as 111%. With `Cc1nc(CC(=O)N2CCC[C@@H]3[C@H]2CCCCc2ccccc2OCC(=O)N3C)cs1` [CBK292091] the figure was 113%; with `CC(C)N1CCC2(C/C=C/CNC(=O)c3ccccc3OCCNC2=O)CC1` [CBK292094], 98.7%; with `O=C1NC/C=C/CC2(CCN(C(=O)c3cccnn3)CC2)C(=O)NCCOc2ccccc21` [CBK292095], 108%.

Consider `O=C1N[C@H]2CCCN(C(=O)Cn3cccnc3=O)[C@H]2CCCCCOc2ccccc21` [CBK292096], for which the viability at 28.5 h, 10 µM is 109%. As for `O=C1COc2ccccc2C/C=C/C[C@H]2CN(C(=O)c3noc4c3CCCC4)CC[C@H]2N1` [CBK292099], the figure is 116%; as for `Cn1cc(C(=O)N2CCCC3(C/C=C/COc4ccccc4C(=O)NCCNC3=O)C2)cn1` (centres unmarked) [CBK292102], 96.4%. For the compound `CC(=O)N1CCC2(C/C=C/C[C@H]3CN(C(=O)Cc4cccc(F)c4)CC[C@H]3NC(=O)CNC2=O)CC1` [CBK292103], the viability at 28.5 h, 10 µM stood at 93.6%. Regarding `O=C1N[C@H]2CCCN(C(=O)c3cncs3)[C@H]2CCCCCOc2ccccc21` [CBK292106], the viability at 28.5 h, 10 µM is 98.2%. As for `COc1ccccc1CN1CC[C@H]2NC(=O)CNC(=O)C3(C/C=C/C[C@H]2C1)CCN(C(C)=O)CC3` [CBK292107], the figure is 111%; as for `CC(=O)N1CCC2(C/C=C/C[C@H]3CN(C(=O)CC4CCOCC4)CC[C@H]3NC(=O)CNC2=O)CC1` [CBK292109], 98.8%; as for `CC(=O)N1CCC2(C/C=C/C[C@H]3CN(C(=O)CCC4CCCC4)CC[C@H]3NC(=O)CNC2=O)CC1` [CBK292111], 87%. For the compound `CN1C(=O)c2ccccc2OCCCCC[C@H]2[C@@H]1CCCN2C(=O)c1ccccc1Cn1cncn1` [CBK292114], the viability at 28.5 h, 10 µM was 110%. As for `Cc1noc(C)c1CCC(=O)N1CC[C@H]2NC(=O)COc3ccccc3C/C=C/C[C@H]2C1` [CBK292115], the figure is 110%. Turning to `O=C1COc2ccccc2C/C=C/C[C@H]2CN(C(=O)CN3CCCCCC3=O)CC[C@H]2N1` [CBK292116], the viability at 28.5 h, 10 µM came to 89.7%.

`CC(=O)NC1(CC(=O)N2CC[C@H]3NC(=O)COc4ccccc4C/C=C/C[C@H]3C2)CCCCC1` [CBK292117]: the viability at 28.5 h, 10 µM was 91.3%. As for `CN1C(=O)COc2ccccc2CCCC[C@@H]2[C@H]1CCCN2C(=O)CNS(C)(=O)=O` [CBK292118], the figure is 113%; as for `CC(=O)N1CC[C@H]2NC(=O)CNC(=O)C3(CCCC[C@H]2C1)CCN(Cc1ccc(Cl)cc1)CC3` [CBK292119], 90.5%. As for `CC(=O)N1CC[C@H]2NC(=O)CNC(=O)C3(CCCC[C@H]2C1)CCN(C(=O)CN1CCCCC1)CC3` [CBK292120], the figure is 104%.

Turning to `CC(=O)N1CCC2(CCCC[C@H]3CN(C(=O)C(C)C)CC[C@@H]3NC(=O)CNC2=O)CC1` [CBK292121], the viability at 28.5 h, 10 µM was 102%.

On to `Cn1cnc(C(=O)N2CCC[C@@H]3NC(=O)c4ccccc4OCCCCC[C@@H]32)c1` [CBK292122], for which the viability at 28.5 h, 10 µM amounted to 114%. As for `CS(=O)(=O)NCC(=O)N1CCC2(CCCCOc3ccccc3C(=O)NCCNC2=O)CC1` [CBK292123], the viability at 28.5 h, 10 µM is 112%. With `O=C1COc2ccccc2C/C=C/CC2(CCN(CC(=O)N3CCCC3)CC2)CN1` [CBK292126] the figure was 93.7%. With `O=C1COc2ccccc2C/C=C/CC2(CCN(C(=O)CCc3cccnc3)CC2)CN1` [CBK292127] the figure was 90.8%; with `O=C1COc2ccccc2C/C=C/CC2(CCN(CC3CCOCC3)CC2)CN1` [CBK292128], 104%. With `CC(=O)N1CCC[C@H]2NC(=O)CNC(=O)C3(C/C=C/C[C@H]21)CCN(CC1CCC1)CC3` [CBK292129] the figure was 103%; with `O=C1COc2ccccc2C/C=C/CC2(CCN(C(=O)CCn3ccnc3)CC2)CN1` [CBK292131], 102%. In the case of `O=C1CNC(=O)C2(C/C=C/C[C@H]3COCC[C@@H]3N1)CCN(Cc1ccc(Cl)cn1)CC2` [CBK292132], the viability at 28.5 h, 10 µM worked out at 91%. With `CC(=O)N1CCC[C@H]2NC(=O)CNC(=O)C3(C/C=C/C[C@H]21)CCN(CC(N)=O)CC3` [CBK292135] the figure was 84.4%. As for `O=C1CNC(=O)C2(C/C=C/C[C@H]3COCC[C@@H]3N1)CCN(CC(=O)N1CCCCC1)CC2` [CBK292137], the figure is 111%; as for `CC(=O)N1CCC2(C/C=C/C[C@H]3CN(CCO)CC[C@H]3NC(=O)CNC2=O)CC1` [CBK292139], 92.8%.

Consider `CC(=O)N1CCC2(C/C=C/C[C@H]3CN(CCCc4ccccc4)CC[C@H]3NC(=O)CNC2=O)CC1` [CBK292140], for which the viability at 28.5 h, 10 µM turned out to be 90.9%.
